Reference: patent US10821128B2, “Treatment of cancer by systemic administration of Dbait molecules” (ONXEO, priority 2016, dated 2020)

Assays:
[1] = test system: pan-nuclear phosphorylation of H2AX in HT29; assay: γH2AX immunofluorescence (DNA-PK activation); assay type: cell-based, human
Experimental: (§1) The inventors have previously shown that Dbait acts by activating DNA-PK kinase, which phosphorylate numerous targets including the histone variant H2AX.
(§2) γH2AX immunofluorescence was performed as described previously using a monoclonal anti-phospho-Histone H2A.X (Ser139) Antibody, clone JBW301 (1:500 dilution; 05-636, Millipore, USA) (9).

[2] = test system: pan-nuclear phosphorylation of H2AX in HCT116; assay: γH2AX immunofluorescence (DNA-PK activation); assay type: cell-based, human
Experimental: as §1, §2

[3] = test system: HT29; assay: In vitro proliferation assay (live cell counts); assay type: cell-based, human
Experimental: (§3) CRC cell lines; HT29 (mutated p53, ATCC: HTB-38) and HCT116 (wild-type p53, ATCC: CCL-247) were purchased directly from ATCC. These cells were authenticated by ATCC by generating human short tandem repeat profiles by simultaneously amplifying multiple STR loci and amelogenin (for gender determination) using the Promega PowerPlex® Systems. These cells were cultured in the laboratory for less than 6 months from the date of purchase in DMEM medium supplemented with 10% fetal bovine serum, 1% sodium pyruvate, […] (Invitrogen, Carlsbad, Calif.), when the current study was performed. HT29 cell line stably expressing luciferase was established in-house using a pGL4.5 luciferase reporter vector (luc2/CMV/Hygro) (Promega). HT29 luciferase cells were supplemented with 200 μg/ml hygromycin B. All cell lines were additionally subjected to mycoplasma testing in-house and were free of mycoplasma contamination (Biovalley, France).
(§4) Cells were transfected with 2.5 μgs of Dbait (5′-[…]-(H) […]-3′ SEQ ID No 9) (Eurogentec, Belgium) where H is a hexaethyleneglycol linker and underlined nucleotides are phosphorothioates. The cells were sham transfected with an 8 bp oligonucleotide control (8H) complexed with 11 kDa polyethyleneimine (PEI) as previously described (Quantz et al, 2009, PloS one, 4, e6298).
(§5) Cells were seeded at a density of 3×10^4 cells/60 mm dishes and transfected with Dbait. Following treatment, cells were washed and left untreated or treated with a combination of 5 μM of oxaliplatin (OXA, Sigma) and 2.5 μM of 5-fluouracil (5-FU, Sigma) and live cell counts were performed on days 1, 3, 5, 6, 7 and 9.

[4] = test system: HCT116; assay: In vitro proliferation assay (live cell counts); assay type: cell-based, human
Experimental: as §3, §4, §5

[5] = test system: HT29; assay: Clonogenic survival assay; assay type: cell-based, human
Experimental: as §3, §4
(§6) Cells were transfected with Dbait and left untreated or treated with 5 μM of OXA and 2.5 μM of 5-FU for 1 hr. The cells were diluted, allowed to grow for 14 days and the clones were stained with crystal violet and counted.

[6] = test system: HCT116; assay: Clonogenic survival assay; assay type: cell-based, human
Experimental: as §3, §4, §6

[7] = test system: MDA-MB-231 tumor; assay: DT01 with carboplatin in MDA-MB-231 TNBC model; assay type: in vivo, athymic nude mouse; settings: carboplatin alone treated group; 177 days of the experiment
Experimental: Treatment was administered in 3 cycles with a 2 week gap between cycles either alone or in association with carboplatin. Only one dose of carboplatin was injected per cycle of DT01 treatment (2nd day of each cycle). The dose of carboplatin was 50 mg/kg per cycle. Treatments were performed over 7 weeks (3 cycles of treatment).
Antitumor activity was evaluated by measuring tumor volume during and after treatment. DT01 was administered intraperitoneally during 3 sessions of 5 days treatment with two weeks of rest between each session. Carboplatin was administered once a week on the second day of each DT01 treatment cycle.
The MDA-MB231 cell line is derived from a human breast adenocarcinoma and can be ordered at the ATCC. The MDA-MB231 cells were grafted in the mammary fat pad with 10·10^6 cells re-suspended in 0.1 ml of DMEM with no additive. The athymic nude mouse is immunodeficient, thus enabling the xenotransplantation and growth of human tumors.

[8] = single treatment (Dbait alone, or OXA and 5-FU alone)
[9] = combination of Dbait with chemotherapy (OXA/5-FU), p=0.05

Row | Compound | activity by pan-nuclear phosphorylation of H2AX [1] | activity by pan-nuclear phosphorylation of H2AX [2] | cell proliferation (number of living cells) [3, 8] | level of proliferation compared to chemotherapy alone ([3]; transfected with Dbait prior to OXA/5-FU, day 9, p<0.02) | cell proliferation (number of living cells) [4, 8] | level of proliferation compared to chemotherapy alone ([4]; transfected with Dbait prior to OXA/5-FU, day 9, p<0.001) | clonogenic survival [5, 9] | clonogenic survival ([5]; single treatment (Dbait alone, or chemotherapy alone p=0.08)) | lethality ([6]; Dbait treatment alone, p<0.01) | clonogenic survival [6, 9] | abnormal death [7]
1 | 5′-GCTGTGCCCACAACCCAGCAAACAAGCCTAGA-(H) TCTAGGCTTGTTTGCTGGGTTGTGGGCACAGC-3′ (hexaethyleneglycol linker; phosphorothioates; nucleic acid molecule Id; note=“at the 3′ end of the complementary strand the three last nucleotides with phosphorothioate or methylphosphonate backbone”; modified_base (1)..(3) mod_base= phosphorothioate or methylphosphonate backbone; (1)..(1) at the 5′ end, Lm = carboxamido oligoethylene glycol + C = single or double chain fatty acids, cholesterol, sugars, peptides or proteins; stem_loop (1)..(3) [Dbait] | confirmed the activity | confirmed the activity | no effect on cell proliferation | significantly reduced | no effect on cell proliferation | significantly reduced | significant reduction in survival | no significant effect | approximately 30% | significant reduction in survival | 
2 | N.N.O=C([O-])C1(C(=O)[O-])CCC1.[Pt+2] [carboplatin] |  |  |  |  |  |  |  |  |  |  | one
